{
  "source": "patent US20220107328A1",
  "about": "“METHODS OF TREATING LIVER DISEASES” (Camp4 Therapeutics Corporation, priority 2018, published 2022)",
  "key": {"PNPLA3 mRNA [1]": {"system": "PNPLA3 mRNA", "experiment": "qRT-PCR of PNPLA3 mRNA in compound-treated mouse hepatocytes", "format": "cell-based", "conditions": "for PNPLA3 mRNA remaining after treatment compared to untreated cells: Mouse hepatocytes; for Relative PNPLA3 mRNA levels: mouse hepatocytes, 1 μM, normalized to ACTB"}, "PNPLA3 mRNA [2]": {"system": "PNPLA3 mRNA", "experiment": "qRT-PCR of PNPLA3 mRNA in human primary hepatic stellate cells", "format": "cell-based", "conditions": "for Relative PNPLA3 mRNA expression: stellate cells, Table 37; for Primary Stellate cells PNPLA3 (fold change in mRNA expression): 3 μM, relative to GAPDH; for Relative PNPLA3 mRNA levels RQ: hepatic stellate cells; for PNPLA3 mRNA remaining after treatment compared to untreated cells: Human Stellate"}, "PNPLA3 mRNA [3]": {"system": "PNPLA3 mRNA", "experiment": "qRT-PCR of PNPLA3 mRNA in compound-treated primary human hepatocytes", "conditions": "for Relative PNPLA3 mRNA expression: primary human hepatocytes, Table 35; for Relative PNPLA3 mRNA levels: 10 μM, human hepatocytes, mean of three replicates ± standard deviation"}, "PNPLA3 expression": {"system": "PNPLA3 expression", "experiment": "RNA-seq of compound-treated primary human hepatocytes", "format": "cell-based", "conditions": "PNPLA3 expression, RNA-seq", "procedure": "Cryopreserved hepatocytes were cultured in plating media for 16 hours, transferred to maintenance media for 4 hours. Cultured on serum-free media for 2 hours, then a compound was added. The hepatocytes were maintained on the serum-free media for 16 hours prior to gene expression analysis.\nHuman hepatocytes cultured as described above were plated in 24-well format, adding 375,000 cells per well in a volume of 500 μl plating medium. Four hours before treatment, cells were washed with PBS and the medium was changed to either: fresh maintenance medium (complete) or modified maintenance medium.\nCompound stocks were prepared at 1000× final concentration and added in a 2-step dilution to the medium to reduce risk of a compound precipitating out of solution when added to the cells, and to ensure reasonable pipetting volumes. One at a time, each compound was first diluted 10-fold in warm (about 37° C.) modified maintenance medium (initial dilution=ID), mixed by vortexing, and the ID was diluted 100-fold into the cell culture (e.g. 5.1 μl into 1 well of a 24-well plate containing 0.5 mL medium). The plate was mixed by carefully swirling and after all wells were treated and returned to the incubator overnight. If desired, separate plates/wells were treated with vehicle-only controls and/or positive controls. If using multi-well plates, controls were included on each plate. After about 18 hours, cells were harvested for further analysis, e.g., ChIP-seq, RNA-seq, ATAC-seq, etc.\nThe expression level of each gene was quantified with normalized FPKM (fragments per kilobase of exon per million mapped fragments). The differentially expressed genes were called using Cuffdiff v2.2.1 with q value<0.01 and log2 fold change>=1 or <=−1.\nTo identify small molecules that modulate PNPLA3, primary human hepatocytes were prepared as a monoculture, and at least one small molecule compound was applied to the cells.\nRNA-seq was performed to determine the effects of the compounds on PNPLA3 expression in hepatocytes. Fold change was calculated by dividing the level of expression in the cell system that had been perturbed by the level of expression in an unperturbed system. Changes in expression having a p-value≤0.05 were considered significant."}, "COL1A1 mRNA": {"system": "COL1A1 mRNA", "experiment": "qRT-PCR of COL1A1 mRNA in human primary hepatic stellate cells", "format": "cell-based", "conditions": "for Primary Stellate cells COL1A1 (fold change in mRNA expression): 3 μM, relative to GAPDH; for Relative COL1A1 mRNA levels RQ: hepatic stellate cells"}, "PCSK9 mRNA": {"system": "PCSK9 mRNA", "experiment": "qRT-PCR of PCSK9 mRNA in primary hepatocytes", "format": "cell-based, human", "conditions": "donor 4178, 3 μM, relative to GUSB"}, "[4]": {"conditions": "mTOR pathway inhibitors, qRT-PCR"}},
  "data": [
    {"smiles": "COc1cc2c(cc1OC)CN(C(=O)/C=C/c1c(-c3ccccc3)n(C)c3ncccc13)CC2", "note": "[SIS3]", "values": [
      {"measurement": "PNPLA3 mRNA remaining after treatment compared to untreated cells", "setting": "PNPLA3 mRNA [1]; 10 uM", "result": 0.50},
      {"measurement": "Relative PNPLA3 mRNA expression", "setting": "PNPLA3 mRNA [2]; 0.01 uM", "result": "1.49 ± 0.09"},
      {"measurement": "Relative PNPLA3 mRNA expression", "setting": "PNPLA3 mRNA [2]; 0.1 uM", "result": "1.38 ± 0.19"},
      {"measurement": "Relative PNPLA3 mRNA expression", "setting": "PNPLA3 mRNA [2]; 1 uM", "result": "0.77 ± 0.03"},
      {"measurement": "Relative PNPLA3 mRNA expression", "setting": "PNPLA3 mRNA [2]; 10 uM", "result": "7.95 ± 2.29"},
      {"measurement": "PNPLA3 mRNA remaining after treatment compared to untreated cells", "setting": "PNPLA3 mRNA [3]; H Hep Donor-1, 10 uM", "result": 0.2},
      {"measurement": "PNPLA3 mRNA remaining after treatment compared to untreated cells", "setting": "PNPLA3 mRNA [3]; H Hep Donor-2, 10 uM", "result": 0.55},
      {"measurement": "Relative PNPLA3 mRNA expression", "setting": "PNPLA3 mRNA [3]; 3.3 uM", "result": "1.358 ± 0.3303"},
      {"measurement": "Relative PNPLA3 mRNA expression", "setting": "PNPLA3 mRNA [3]; 10 uM", "result": "1.011 ± 0.2574"}
    ]},
    {"smiles": "NS(=O)(=O)C#Cc1ccccc1", "note": "[Pifithrin-μ, 2-Phenylethynesulfonamide]", "values": [
      {"measurement": "Fold change (Log 2) vs untreated", "setting": "PNPLA3 expression", "result": "−0.68"}
    ]},
    {"smiles": "COc1nc(N)nc2c1ncn2[C@@H]1O[C@H](COP(=O)(N[C@@H](C)C(=O)OCC(C)(C)C)Oc2cccc3ccccc23)[C@@H](O)[C@@]1(C)O", "note": "(stereo partly shown) [BMS-986094]", "values": [
      {"measurement": "Fold change (Log 2) vs untreated", "setting": "PNPLA3 expression", "result": "−0.69"}
    ]},
    {"smiles": "COc1cc(Nc2ncc(F)c(Nc3ccc4c(n3)N(COP(=O)([O-])[O-])C(=O)C(C)(C)O4)n2)cc(OC)c1OC.[Na+].[Na+]", "note": "[R788, fostamatinib disodium hexahydrate]", "values": [
      {"measurement": "Fold change (Log 2) vs untreated", "setting": "PNPLA3 expression", "result": "−1.38"},
      {"measurement": "Relative PNPLA3 mRNA levels", "setting": "PNPLA3 mRNA [3]; Syk pathway inhibitors, normalized to B2M", "result": "0.77 ± 0.02"}
    ]},
    {"smiles": "COc1ccc(-c2ccc3c(N4CCOC[C@@H]4C)nc(N4CCOC[C@@H]4C)nc3n2)cc1CO", "note": "[AZD-8055]", "values": [
      {"measurement": "Relative PNPLA3 mRNA levels", "setting": "PNPLA3 mRNA [1]", "result": "0.21 ± 0.11"},
      {"measurement": "Primary Stellate cells PNPLA3 (fold change in mRNA expression)", "setting": "PNPLA3 mRNA [2]", "result": 0.36},
      {"measurement": "Relative PNPLA3 mRNA levels RQ", "setting": "PNPLA3 mRNA [2]; 0.01 μM", "result": 0.38},
      {"measurement": "Relative PNPLA3 mRNA levels RQ", "setting": "PNPLA3 mRNA [2]; 0.1 μM", "result": 0.44},
      {"measurement": "Relative PNPLA3 mRNA levels RQ", "setting": "PNPLA3 mRNA [2]; 1 μM", "result": 0.45},
      {"measurement": "Relative PNPLA3 mRNA levels RQ", "setting": "PNPLA3 mRNA [2]; 10 μM", "result": 0.39},
      {"measurement": "Primary Stellate cells COL1A1 (fold change in mRNA expression)", "setting": "COL1A1 mRNA", "result": 0.46},
      {"measurement": "Relative COL1A1 mRNA levels RQ", "setting": "COL1A1 mRNA; 0.01 μM", "result": 0.71},
      {"measurement": "Relative COL1A1 mRNA levels RQ", "setting": "COL1A1 mRNA; 0.1 μM", "result": 0.58},
      {"measurement": "Relative COL1A1 mRNA levels RQ", "setting": "COL1A1 mRNA; 1 μM", "result": 0.35},
      {"measurement": "Relative COL1A1 mRNA levels RQ", "setting": "COL1A1 mRNA; 10 μM", "result": 0.27},
      {"measurement": "Primary Hepatocytes 4178 PCSK9 (fold change in mRNA expression)", "setting": "PCSK9 mRNA", "result": 0.68},
      {"measurement": "Relative PNPLA3 mRNA levels", "setting": "PNPLA3 mRNA [3]; [4]", "result": "0.52 ± 0.16"}
    ]},
    {"smiles": "CCNC(=O)Nc1ccc(-c2nc(N3CCOC[C@@H]3C)c3c(n2)C(C)(C)S(=O)(=O)C3)cc1", "note": "[CZ415]", "values": [
      {"measurement": "Relative PNPLA3 mRNA levels", "setting": "PNPLA3 mRNA [1]", "result": "0.20 ± 0.11"},
      {"measurement": "Primary Stellate cells PNPLA3 (fold change in mRNA expression)", "setting": "PNPLA3 mRNA [2]", "result": 0.37},
      {"measurement": "Relative PNPLA3 mRNA levels RQ", "setting": "PNPLA3 mRNA [2]; 0.01 μM", "result": 0.87},
      {"measurement": "Relative PNPLA3 mRNA levels RQ", "setting": "PNPLA3 mRNA [2]; 0.1 μM", "result": 0.47},
      {"measurement": "Relative PNPLA3 mRNA levels RQ", "setting": "PNPLA3 mRNA [2]; 1 μM", "result": 0.31},
      {"measurement": "Relative PNPLA3 mRNA levels RQ", "setting": "PNPLA3 mRNA [2]; 10 μM", "result": 0.35},
      {"measurement": "Primary Stellate cells COL1A1 (fold change in mRNA expression)", "setting": "COL1A1 mRNA", "result": 0.59},
      {"measurement": "Relative COL1A1 mRNA levels RQ", "setting": "COL1A1 mRNA; 0.01 μM", "result": 1.01},
      {"measurement": "Relative COL1A1 mRNA levels RQ", "setting": "COL1A1 mRNA; 0.1 μM", "result": 0.86},
      {"measurement": "Relative COL1A1 mRNA levels RQ", "setting": "COL1A1 mRNA; 1 μM", "result": 0.28},
      {"measurement": "Relative COL1A1 mRNA levels RQ", "setting": "COL1A1 mRNA; 10 μM", "result": 0.27},
      {"measurement": "Primary Hepatocytes 4178 PCSK9 (fold change in mRNA expression)", "setting": "PCSK9 mRNA", "result": 0.66},
      {"measurement": "Primary Hepatocytes 4178 PNPLA3 (fold change in mRNA expression)", "setting": "PNPLA3 mRNA [3]; donor 4178, 3 μM, relative to GUSB", "result": 0.60},
      {"measurement": "Primary Hepatocytes 4282 PNPLA3 (fold change in mRNA expression)", "setting": "PNPLA3 mRNA [3]; donor 4282, 3 μM, relative to GUSB", "result": 0.70},
      {"measurement": "Relative PNPLA3 mRNA levels", "setting": "PNPLA3 mRNA [3]; [4]", "result": "0.62 ± 0.07"}
    ]},
    {"smiles": "COc1cccc2cc(-c3nc([C@H]4CC[C@H](C(=O)O)CC4)n4ncnc(N)c34)[nH]c12", "note": "[OSI-027/ASP7486]", "values": [
      {"measurement": "PNPLA3 mRNA remaining after treatment compared to untreated cells", "setting": "PNPLA3 mRNA [1]; 1 uM", "result": 0.3},
      {"measurement": "PNPLA3 mRNA remaining after treatment compared to untreated cells", "setting": "PNPLA3 mRNA [1]; 10 uM", "result": 0.35},
      {"measurement": "PNPLA3 mRNA remaining after treatment compared to untreated cells", "setting": "PNPLA3 mRNA [2]; 1 uM", "result": 0.2},
      {"measurement": "PNPLA3 mRNA remaining after treatment compared to untreated cells", "setting": "PNPLA3 mRNA [2]; 10 uM", "result": 0.65},
      {"measurement": "PNPLA3 mRNA remaining after treatment compared to untreated cells", "setting": "PNPLA3 mRNA [3]; H Hep Donor-1, 1 uM (stated in cell)", "result": "0.3 (1 uM)"},
      {"measurement": "PNPLA3 mRNA remaining after treatment compared to untreated cells", "setting": "PNPLA3 mRNA [3]; H Hep Donor-2, 1 uM (stated in cell)", "result": "0.4 (1 uM)"},
      {"measurement": "PNPLA3 mRNA remaining after treatment compared to untreated cells", "setting": "PNPLA3 mRNA [3]; H Hep Donor-3, 10 uM", "result": 0.55},
      {"measurement": "PNPLA3 mRNA remaining after treatment compared to untreated cells", "setting": "PNPLA3 mRNA [3]; H Hep Donor-4, 1 uM", "result": 0.6},
      {"measurement": "PNPLA3 mRNA remaining after treatment compared to untreated cells", "setting": "PNPLA3 mRNA [3]; H Hep Donor-4, 10 uM", "result": 0.38},
      {"measurement": "PNPLA3 mRNA remaining after treatment compared to untreated cells", "setting": "PNPLA3 mRNA [3]; H Hep Donor-5, 1 uM", "result": 0.5},
      {"measurement": "PNPLA3 mRNA remaining after treatment compared to untreated cells", "setting": "PNPLA3 mRNA [3]; H Hep Donor-5, 10 uM", "result": 0.2}
    ]}
  ]
}
